Measured values: patent US5707648A, “Transparent liquid for encapsulated drug delivery” (LDS Technologies, Inc., priority 1995, dated 1998)

Experiments:
plasma Factor VIII = experiment: Plasma Factor VIII levels following administration of dDAVP (dDAVP Dog Study); format: in vivo, Male beagle dogs; conditions: dogs; capsules with 13, 43 and 125 μg dDAVP, dDAVP in dextrose, or s.c. 0.4 μg/kg
Method: Male beagle dogs weighing 9-12 kg were used in all experiments. Prior to each study, all animals were fasted overnight but were allowed access to water ad libitum.
Peroral administration: Enteric coated hard gelatin capsules, size 0el (0.78 ml) from [sequence], fill materials: 0.73 g of the drug delivery compositions containing:
Subcutaneous administration: 4 μg dDAVP/ml composition, 0.4 μg dDAVP/kg animal (Table 6F).
Plasma Factor VIII levels following administration of dDAVP was used as a pharmacodynamic response to the drug. Maximum response to dDAVP was determined by measuring plasma Factor VIII response levels following subcutaneous administration of dDAVP (Table 6F).
For studies involving capsule administration, a single capsule was given to each animal in each study. Blood samples were taken immediately prior to dDAVP administration (t=0), and at various times thereafter. Plasma levels of Factor VIII were determined using commercially available kits.

[1] = human, in vivo; cited from earlier work
[2] = compared with AVP or LVP; cited from earlier work
[3] = tested on: delta-class of opioid receptor; conditions: Vaughn et al. 1989; cited from earlier work
[4] = Chemical stability of calcitonin in the formulation; format: physicochemical; conditions: formulation of Table 7.1

NC(=O)CC[C@@H]1NC(=O)[C@H](Cc2ccccc2)NC(=O)[C@H](Cc2ccc(O)cc2)NC(=O)CCSSC[C@@H](C(=O)N2CCC[C@H]2C(=O)N[C@H](CCCN=C(N)N)C(=O)NCC(N)=O)NC(=O)[C@H](CC(N)=O)NC1=O [desmopressin]
response in plasma Factor VIII levels (in words) (plasma Factor VIII): dose-dependent increase in plasma Factor VIII levels
oral bioavailability [1]: 0.1-0.2%
pressor (vasoconstricting) activities [2]: lacks the pressor (vasoconstricting) activities of AVP or LVP

[D-Pen^2,5, PCl-Phe^4 ]-enkephalin
interaction with the delta-class of opioid receptor [3]: interacts selectively with the delta-class of opioid receptor

calcitonin
chemical stability of calcitonin in the formulation [4]: chemically stable in this formulation for at least two months
